target: T1, CFTR (Homo sapiens, UniProt P13569); assay: T84 assay (FLIPR membrane potential, forskolin/IBMX-stimulated CFTR channel activity); assay type: cell-based; conditions: Human colonic T84 cells; average of at least 2 runs unless annotated n = 1
T1 construct: host or cells: Human colonic T84 cells
Protocol: (§1) For example, Human colonic T84 cells can be acquired from the European Collection of Cell Cultures (ECACC) and grown in standard culture conditions as described by the supplier. On the day before assay 25,000 T84 cells per well are plated into standard black walled, clear bottom 384-well assay plates in standard growth medium consisting of DMEM:F12 with 10% FBS and incubated overnight. On the day of the assay the plates are washed using a standard assay buffer (HBSS with 10 mM Hepes) and incubated for 15 minutes in serum free cell culture medium before the addition of a commercially available membrane potential sensitive fluorescent dye (FLIPR Red membrane potential dye, Molecular Devices Corporation). T84 cells are incubated with the FLIPR Red membrane potential dye for 45 minutes in the presence and absence of test compound before being transferred to a commercially available fluorescence imaging plate reader (FLIPR384, Molecular Devices Corporation). Fluorescence levels are monitored continuously every second for 150 seconds; after an initial 10 second baseline, CFTR channel activity is stimulated through the addition of 10 μM forskolin in the presence of 100 μM of the phosphodiesterase inhibitor iso-butyl-methylxanthine (IBMX). Addition of the forskolin leads to the activation of intracellular adenylyl cylase 1, elevating cAMP levels and results in the phosphorylation and opening of CFTR anion channels. CFTR channel opening causes chloride ion efflux and subsequent depolarization of the cells, which is measured by an increase in fluorescence. CFTR inhibitor compounds prevent cell depolarization and the associated increase in fluorescence.
as §1, with “Human colonic” for “For example, Human colonic”, “T84 cells are acquired from” for “T84 cells can be acquired from”, “(ECACC) and are grown in” for “(ECACC) and grown in”

T1 sequence (P13569 whole entry): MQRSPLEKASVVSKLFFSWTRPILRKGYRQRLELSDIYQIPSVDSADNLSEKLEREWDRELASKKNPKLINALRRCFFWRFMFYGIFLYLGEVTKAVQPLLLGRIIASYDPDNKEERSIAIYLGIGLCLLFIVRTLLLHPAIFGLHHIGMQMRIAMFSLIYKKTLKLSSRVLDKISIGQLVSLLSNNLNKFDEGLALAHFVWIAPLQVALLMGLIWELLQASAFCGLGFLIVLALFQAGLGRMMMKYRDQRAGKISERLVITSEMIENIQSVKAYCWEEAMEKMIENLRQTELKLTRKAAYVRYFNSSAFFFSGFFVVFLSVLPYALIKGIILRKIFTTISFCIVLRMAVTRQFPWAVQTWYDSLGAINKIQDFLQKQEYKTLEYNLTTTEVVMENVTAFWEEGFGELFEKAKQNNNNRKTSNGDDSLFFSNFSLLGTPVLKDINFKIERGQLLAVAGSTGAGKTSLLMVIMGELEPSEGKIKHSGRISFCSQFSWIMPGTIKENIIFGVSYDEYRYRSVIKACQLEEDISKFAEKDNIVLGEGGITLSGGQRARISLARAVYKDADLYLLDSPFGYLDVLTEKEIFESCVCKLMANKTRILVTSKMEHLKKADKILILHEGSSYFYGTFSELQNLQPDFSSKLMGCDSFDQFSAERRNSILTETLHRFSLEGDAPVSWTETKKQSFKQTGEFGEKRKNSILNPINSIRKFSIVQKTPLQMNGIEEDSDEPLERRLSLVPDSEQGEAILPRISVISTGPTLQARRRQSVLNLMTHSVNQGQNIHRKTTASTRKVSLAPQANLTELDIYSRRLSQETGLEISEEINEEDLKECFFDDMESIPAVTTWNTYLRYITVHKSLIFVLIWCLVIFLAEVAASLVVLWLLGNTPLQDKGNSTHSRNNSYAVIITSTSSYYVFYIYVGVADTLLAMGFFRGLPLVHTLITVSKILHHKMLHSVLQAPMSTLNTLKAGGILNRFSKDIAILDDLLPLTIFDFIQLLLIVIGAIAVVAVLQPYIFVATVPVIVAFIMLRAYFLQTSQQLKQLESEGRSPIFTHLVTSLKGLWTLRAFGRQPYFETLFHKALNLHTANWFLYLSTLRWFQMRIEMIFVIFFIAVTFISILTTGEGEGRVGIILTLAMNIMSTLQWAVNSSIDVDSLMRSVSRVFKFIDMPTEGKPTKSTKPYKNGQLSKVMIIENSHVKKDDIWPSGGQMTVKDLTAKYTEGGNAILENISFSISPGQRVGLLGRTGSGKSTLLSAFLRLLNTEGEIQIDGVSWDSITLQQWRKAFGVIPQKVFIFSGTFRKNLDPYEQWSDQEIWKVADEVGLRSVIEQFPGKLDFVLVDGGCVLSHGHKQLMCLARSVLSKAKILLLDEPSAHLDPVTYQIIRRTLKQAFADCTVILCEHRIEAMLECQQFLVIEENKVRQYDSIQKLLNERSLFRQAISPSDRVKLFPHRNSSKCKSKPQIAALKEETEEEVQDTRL

Compound | IC50 [µM]
Oc1c(Cl)cc(-c2cc(N3CCN(Cc4cccc(C(F)(F)F)c4)CC3)c(OCCc3ccc(Cl)cc3)nn2)cc1Cl [Compound 1, 2,6-dichloro-4-(6-(4-chlorophenethoxy)-5-(4-(3-(trifluoromethyl)benzyl)piperazin-1-yl)pyridazin-3-yl)phenol] | 27
O=C(Cc1ccccn1)N1CCN(c2cc(-c3cc(Cl)c(O)c(Cl)c3)nnc2OCCc2ccc(Cl)cc2)CC1 [Compound 3, 1-(4-(3-(4-Chlorophenethoxy)-6-(3,5-dichloro-4-hydroxyphenyl)pyridazin-4-yl)piperazin-1-yl)-2-(pyridin-2-yl)ethanone] | 18.1
CS(=O)(=O)Nc1ccc(CNC(=O)c2cc(-c3cc(Cl)c(O)c(Cl)c3)nnc2OCCc2ccc(Cl)cc2)cc1 [Compound 4, 3-(4-Chlorophenethoxy)-6-(3,5-dichloro-4-hydroxyphenyl)-N-(4-(methylsulfonamido)benzyl)pyridazine-4-carboxamide] | 17.5
CCN1CCN(c2cc(-c3cc(Cl)c(O)c(Cl)c3)nnc2OCCc2ccc(Cl)cc2)CC1 [Compound 5, 2,6-dichloro-4-(6-(4-chlorophenethoxy)-5-(4-ethylpiperazin-1-yl)pyridazin-3-yl)phenol] | 15.8
O=C(NCc1cccc(C(F)(F)F)c1)c1cc(-c2cc(Cl)c(O)c(Cl)c2)nnc1OCCc1ccc(Cl)cc1 [Compound 6, 3-(4-chlorophenethoxy)-6-(3,5-dichloro-4-hydroxyphenyl)-N-(3-(trifluoromethyl)benzyl)pyridazine-4-carboxamide] | 24.7
O=C(NCc1ccc(C(F)(F)F)cc1)c1cc(-c2cc(Cl)c(O)c(Cl)c2)nnc1OCCc1ccc(Cl)cc1 [Compound 7, 3-(4-chlorophenethoxy)-6-(3,5-dichloro-4-hydroxyphenyl)-N-(4-(trifluoromethyl)benzyl)pyridazine-4-carboxamide] | 16.5
O=C(NCc1cc(F)cc(F)c1)c1cc(-c2cc(Cl)c(O)c(Cl)c2)nnc1OCCc1ccc(Cl)cc1 [Compound 8, 3-(4-chlorophenethoxy)-6-(3,5-dichloro-4-hydroxyphenyl)-N-(3,5-difluorobenzyl)pyridazine-4-carboxamide] | 13
O=C(c1cc(-c2cc(Cl)c(O)c(Cl)c2)nnc1OCCc1ccc(Cl)cc1)N(CCO)Cc1ccc(F)cc1 [Compound 10, 3-(4-chlorophenethoxy)-6-(3,5-dichloro-4-hydroxyphenyl)-N-(4-fluorobenzyl)-N-(2-hydroxyethyl)pyridazine-4-carboxamide] | 12.1
CCCN(CCO)C(=O)c1cc(-c2cc(Cl)c(O)c(Cl)c2)nnc1OCCc1ccc(Cl)cc1 [Compound 13, 3-(4-chlorophenethoxy)-6-(3,5-dichloro-4-hydroxyphenyl)-N-(2-hydroxyethyl)-N-propylpyridazine-4-carboxamide] | 28.6
Oc1c(Cl)cc(-c2cc(N3CCN(Cc4ccc(OCCCN5CCSCC5)cc4)CC3)c(OCCc3ccc(Cl)cc3)nn2)cc1Cl [Compound 19, 2,6-dichloro-4-(6-(4-chlorophenethoxy)-5-(4-(4-(3-thiomorpholinopropoxy)benzyl)piperazin-1-yl)pyridazin-3-yl)phenol] | 17
CN1CCN(CCOc2ccc(CN3CCN(c4cc(-c5cc(Cl)c(O)c(Cl)c5)nnc4OCCc4ccc(Cl)cc4)CC3)cc2)CC1 [Compound 22, 2,6-dichloro-4-(6-(4-chlorophenethoxy)-5-(4-(4-(2-(4-methylpiperazin-1-yl)ethoxy)benzyl)piperazin-1-yl)pyridazin-3-yl)phenol] | 13.2

The remaining compounds from weak to strong by IC50, led by results:

IC50 [µM] | Compound
12 | CCN(Cc1ccccc1)C(=O)c1cc(-c2cc(Cl)c(O)c(Cl)c2)nnc1N(CC)Cc1ccccc1 [Compound 20, N-benzyl-3-(benzyl(ethyl)amino)-6-(3,5-dichloro-4-hydroxyphenyl)-N-ethylpyridazine-4-carboxamide]
10.3 | O=C(c1cc(-c2cc(Cl)c(O)c(Cl)c2)nnc1OCCc1ccc(Cl)cc1)N(CCO)Cc1ccccc1Cl [Compound 12, N-(2-chlorobenzyl)-3-(4-chlorophenethoxy)-6-(3,5-dichloro-4-hydroxyphenyl)-N-(2-hydroxyethyl)pyridazine-4-carboxamide]
9.85 | CN(C)CCCOc1cccc(CN2CCN(c3cc(-c4cc(Cl)c(O)c(Cl)c4)nnc3OCCc3ccc(Cl)cc3)CC2)c1 [Compound 16, 2,6-dichloro-4-(6-(4-chlorophenethoxy)-5-(4-(3-(3-(dimethylamino)propoxy)benzyl)piperazin-1-yl)pyridazin-3-yl)phenol]
9.45 | Oc1c(Cl)cc(-c2cc(N3CCN(Cc4ccc(OCCN5CCOCC5)cc4)CC3)c(OCCc3ccc(Cl)cc3)nn2)cc1Cl [Compound 14, 2,6-dichloro-4-(6-(4-chlorophenethoxy)-5-(4-(4-(2-morpholinoethoxy)benzyl)piperazin-1-yl)pyridazin-3-yl)phenol]
8.06 | O=C(NCc1cc(F)c(F)c(F)c1)c1cc(-c2cc(Cl)c(O)c(Cl)c2)nnc1OCCc1ccc(Cl)cc1 [Compound 9, 3-(4-chlorophenethoxy)-6-(3,5-dichloro-4-hydroxyphenyl)-N-(3,4,5-trifluorobenzyl)pyridazine-4-carboxamide]
7.5 | Oc1c(Cl)cc(-c2cc(N3CCN(Cc4ccc(OCCCN5CCC(F)(F)CC5)cc4)CC3)c(OCCc3ccc(Cl)cc3)nn2)cc1Cl [Compound 18, 2,6-dichloro-4-(6-(4-chlorophenethoxy)-5-(4-(4-(3-(4,4-difluoropiperidin-1-yl)propoxy)benzyl)piperazin-1-yl)pyridazin-3-yl)phenol]
7.33 | NC(=O)C1CCN(CCCOc2ccc(CN3CCN(c4cc(-c5cc(Cl)c(O)c(Cl)c5)nnc4OCCc4ccc(Cl)cc4)CC3)cc2)CC1 [Compound 21, 1-(3-(4-((4-(3-(4-chlorophenethoxy)-6-(3,5-dichloro-4-hydroxyphenyl)pyridazin-4-yl)piperazin-1-yl)methyl)phenoxy)propyl)piperidine-4-carboxamide]
3.8 | CN(C)CCCOc1ccccc1CN1CCN(c2cc(-c3cc(Cl)c(O)c(Cl)c3)nnc2OCCc2ccc(Cl)cc2)CC1 [Compound 17, 2,6-dichloro-4-(6-(4-chlorophenethoxy)-5-(4-(2-(3-(dimethylamino)propoxy)benzyl)piperazin-1-yl)pyridazin-3-yl)phenol]
3.05 | CN(C)CCOc1ccc(CN2CCN(c3cc(-c4cc(Cl)c(O)c(Cl)c4)nnc3OCCc3ccc(Cl)cc3)CC2)cc1 [Compound 15, 2,6-dichloro-4-(6-(4-chlorophenethoxy)-5-(4-(4-(2-(dimethylamino)ethoxy)benzyl)piperazin-1-yl)pyridazin-3-yl)phenol]
2.33 | COc1cc(CN2CCN(c3cc(-c4cc(Cl)c(O)c(Cl)c4)nnc3OCCc3ccc(Cl)cc3)CC2)ccc1OCCN1CCN(C)CC1 [Compound 23, 2,6-dichloro-4-(6-(4-chlorophenethoxy)-5-(4-(3-methoxy-4-(2-(4-methylpiperazin-1-yl)ethoxy)benzyl)piperazin-1-yl)pyridazin-3-yl)phenol]
1.8 | CN(C)CCCOc1ccc(CN2CCN(c3cc(-c4cc(Cl)c(O)c(Cl)c4)nnc3OCCc3ccc(Cl)cc3)CC2)cc1 [Compound 2, 2,6-Dichloro-4-(6-(4-chlorophenethoxy)-5-(4-(4-(3-(dimethylamino)propoxy)benzyl)piperazin-1-yl)pyridazin-3-yl)phenol]
